In the OligoGym collection:
HELM strings list units from the 5' end as sugar, base in round brackets, then linkage (d deoxyribose, r ribose, m 2'-O-methyl, p phosphodiester). Strings are as the collection lists them; they lack the last nucleoside at the 3' end of the tested compound. [moe] = 2'-O-(2-methoxyethyl) (MOE); [sp] = phosphorothioate linkage; [m5C] = 5-methylcytosine

Target: LRRK2
Assay: mouse, dose not given
Details: ASO

| Substance | 3 h FOB score |
| --- | --- |
| RNA1{[moe](A)[sp].[moe](T)p.[moe](T)p.[moe](G)p.[moe]([m5C])[sp].d(A)[sp].d(A)[sp].d(T)[sp].d(G)[sp].d(T)[sp].d(T)[sp].d(T)[sp].d([m5C])[sp].d(A)[sp].d(A)[sp].[moe](T)p.[moe](A)p.[moe](T)[sp].[moe](G)}$$$$ (last 3' nucleoside missing) | 1 score 0-7 |
| RNA1{[moe](G)[sp].[moe](T)p.[moe]([m5C])p.[moe](A)p.[moe]([m5C])[sp].d([m5C])[sp].d(T)[sp].d(T)[sp].d(T)[sp].d([m5C])[sp].d([m5C])[sp].d([m5C])[sp].d(A)[sp].d(A)[sp].d(T)[sp].[moe](G)p.[moe]([m5C])p.[moe](T)[sp].[moe](T)}$$$$ (last 3' nucleoside missing) | 0 score 0-7 |
| RNA1{[moe](G)[sp].[moe]([m5C])p.[moe](A)p.[moe]([m5C])p.[moe](A)[sp].d([m5C])[sp].d(A)[sp].d(G)[sp].d(T)[sp].d(G)[sp].d(T)[sp].d(A)[sp].d(G)[sp].d(T)[sp].d([m5C])[sp].[moe](A)p.[moe](T)p.[moe](A)[sp].[moe]([m5C])}$$$$ (last 3' nucleoside missing) | 2 score 0-7 |
| RNA1{[moe](T)[sp].[moe]([m5C])p.[moe](T)[sp].[moe](T)[sp].[moe]([m5C])[sp].d(A)[sp].d(G)[sp].d(T)[sp].d(T)[sp].d([m5C])[sp].d([m5C])[sp].d(T)[sp].d(T)[sp].d([m5C])[sp].d(A)[sp].[moe](G)[sp].[moe](T)p.[moe]([m5C])[sp].[moe](T)}$$$$ (last 3' nucleoside missing) | 3 score 0-7 |
| RNA1{[moe](T)[sp].[moe](T)p.[moe]([m5C])p.[moe](A)p.[moe](T)[sp].d(T)[sp].d([m5C])[sp].d(G)[sp].d(G)[sp].d(T)[sp].d(T)[sp].d(A)[sp].d(T)[sp].d(A)[sp].d(A)[sp].[moe](G)p.[moe](G)p.[moe]([m5C])[sp].[moe](A)}$$$$ (last 3' nucleoside missing) | 4 score 0-7 |
| RNA1{[moe]([m5C])[sp].[moe](A)p.[moe](A)[sp].[moe](G)[sp].[moe](T)[sp].d([m5C])[sp].d([m5C])[sp].d(A)[sp].d(A)[sp].d(A)[sp].d(T)[sp].d(G)[sp].d(T)[sp].d(G)[sp].d(T)[sp].[moe]([m5C])[sp].[moe](A)p.[moe](A)[sp].[moe](A)}$$$$ (last 3' nucleoside missing) | 7 score 0-7 |
| RNA1{[moe](A)[sp].[moe](G)p.[moe](T)[sp].[moe](T)[sp].[moe]([m5C])[sp].d([m5C])[sp].d(T)[sp].d(T)[sp].d([m5C])[sp].d(A)[sp].d(G)[sp].d(T)[sp].d([m5C])[sp].d(T)[sp].d([m5C])[sp].[moe](A)p.[moe](A)p.[moe](G)[sp].[moe](G)}$$$$ (last 3' nucleoside missing) | 7 score 0-7 |
| RNA1{[moe]([m5C])[sp].[moe](A)p.[moe](T)p.[moe](A)p.[moe](A)[sp].d(G)[sp].d(T)[sp].d(T)[sp].d(T)[sp].d([m5C])[sp].d(A)[sp].d(T)[sp].d(T)[sp].d([m5C])[sp].d(G)[sp].[moe](G)p.[moe](T)p.[moe](T)[sp].[moe](A)}$$$$ (last 3' nucleoside missing) | 5 score 0-7 |
| RNA1{[moe](A)[sp].[moe](T)p.[moe](G)[sp].[moe]([m5C])[sp].[moe](T)[sp].d(T)[sp].d(T)[sp].d([m5C])[sp].d(A)[sp].d(T)[sp].d(A)[sp].d(G)[sp].d([m5C])[sp].d(T)[sp].d(T)[sp].[moe]([m5C])[sp].[moe]([m5C])p.[moe](A)[sp].[moe]([m5C])}$$$$ (last 3' nucleoside missing) | 2 score 0-7 |
| RNA1{[moe](A)[sp].[moe](T)p.[moe](A)[sp].[moe](A)[sp].[moe](G)[sp].d(T)[sp].d(T)[sp].d(T)[sp].d([m5C])[sp].d(A)[sp].d(T)[sp].d(T)[sp].d([m5C])[sp].d(G)[sp].d(G)[sp].[moe](T)[sp].[moe](T)p.[moe](A)[sp].[moe](T)}$$$$ (last 3' nucleoside missing) | 4 score 0-7 |
| RNA1{[moe](A)[sp].[moe](T)p.[moe](T)[sp].[moe]([m5C])[sp].[moe](G)[sp].d(G)[sp].d(T)[sp].d(T)[sp].d(A)[sp].d(T)[sp].d(A)[sp].d(A)[sp].d(G)[sp].d(G)[sp].d([m5C])[sp].[moe](A)[sp].[moe]([m5C])p.[moe](A)[sp].[moe](G)}$$$$ (last 3' nucleoside missing) | 5 score 0-7 |
| RNA1{[moe](T)[sp].[moe](G)p.[moe]([m5C])p.[moe](T)p.[moe](G)[sp].d([m5C])[sp].d(T)[sp].d([m5C])[sp].d(A)[sp].d(T)[sp].d(A)[sp].d(T)[sp].d([m5C])[sp].d(T)[sp].d(A)[sp].[moe](A)p.[moe](A)p.[moe](G)[sp].[moe](A)}$$$$ (last 3' nucleoside missing) | 0 score 0-7 |
| RNA1{[moe](T)[sp].[moe](G)p.[moe]([m5C])p.[moe](T)p.[moe](T)[sp].d(T)[sp].d([m5C])[sp].d(A)[sp].d(T)[sp].d(A)[sp].d(G)[sp].d([m5C])[sp].d(T)[sp].d(T)[sp].d([m5C])[sp].[moe]([m5C])p.[moe](A)p.[moe]([m5C])[sp].[moe]([m5C])}$$$$ (last 3' nucleoside missing) | 0 score 0-7 |
| RNA1{[moe](A)[sp].[moe](G)p.[moe]([m5C])p.[moe](A)p.[moe](A)[sp].d(T)[sp].d([m5C])[sp].d(A)[sp].d(T)[sp].d(T)[sp].d(G)[sp].d(G)[sp].d(T)[sp].d(A)[sp].d(G)[sp].[moe]([m5C])p.[moe](A)p.[moe](T)[sp].[moe](A)}$$$$ (last 3' nucleoside missing) | 5 score 0-7 |
| RNA1{[moe](A)[sp].[moe](G)p.[moe](T)[sp].[moe](G)[sp].[moe]([m5C])[sp].d(A)[sp].d(T)[sp].d(G)[sp].d(G)[sp].d([m5C])[sp].d(A)[sp].d(T)[sp].d([m5C])[sp].d(A)[sp].d(A)[sp].[moe](A)[sp].[moe](A)p.[moe](A)[sp].[moe](T)}$$$$ (last 3' nucleoside missing) | 2 score 0-7 |
| RNA1{[moe]([m5C])[sp].[moe]([m5C])p.[moe](A)[sp].[moe]([m5C])[sp].[moe](A)[sp].d(A)[sp].d(A)[sp].d([m5C])[sp].d(T)[sp].d([m5C])[sp].d(A)[sp].d(T)[sp].d(G)[sp].d(G)[sp].d(A)[sp].[moe]([m5C])[sp].[moe](T)p.[moe](T)[sp].[moe]([m5C])}$$$$ (last 3' nucleoside missing) | 7 score 0-7 |
| RNA1{[moe](A)[sp].[moe](A)p.[moe](G)[sp].[moe](T)[sp].[moe]([m5C])[sp].d([m5C])[sp].d(A)[sp].d(A)[sp].d(A)[sp].d(T)[sp].d(G)[sp].d(T)[sp].d(G)[sp].d(T)[sp].d([m5C])[sp].[moe](A)[sp].[moe](A)p.[moe](A)[sp].[moe]([m5C])}$$$$ (last 3' nucleoside missing) | 5 score 0-7 |
| RNA1{[moe](G)[sp].[moe](T)p.[moe](A)p.[moe]([m5C])p.[moe]([m5C])[sp].d([m5C])[sp].d(T)[sp].d(T)[sp].d(T)[sp].d([m5C])[sp].d([m5C])[sp].d(A)[sp].d(T)[sp].d(G)[sp].d(T)[sp].[moe](G)p.[moe](A)p.[moe](A)[sp].[moe]([m5C])}$$$$ (last 3' nucleoside missing) | 1 score 0-7 |
| RNA1{[moe](A)[sp].[moe](A)p.[moe](T)p.[moe](G)p.[moe]([m5C])[sp].d(T)[sp].d(T)[sp].d(T)[sp].d([m5C])[sp].d(A)[sp].d(T)[sp].d(A)[sp].d(G)[sp].d([m5C])[sp].d(T)[sp].[moe](T)p.[moe]([m5C])p.[moe]([m5C])[sp].[moe](A)}$$$$ (last 3' nucleoside missing) | 1 score 0-7 |
| RNA1{[moe](T)[sp].[moe](T)p.[moe](G)[sp].[moe]([m5C])[sp].[moe](T)[sp].d(G)[sp].d([m5C])[sp].d(T)[sp].d([m5C])[sp].d(A)[sp].d(T)[sp].d(A)[sp].d(T)[sp].d([m5C])[sp].d(T)[sp].[moe](A)[sp].[moe](A)p.[moe](A)[sp].[moe](G)}$$$$ (last 3' nucleoside missing) | 3 score 0-7 |
| RNA1{[moe](G)[sp].[moe](A)p.[moe](A)[sp].[moe]([m5C])[sp].[moe](T)[sp].d(T)[sp].d(T)[sp].d(A)[sp].d(T)[sp].d(A)[sp].d(T)[sp].d(A)[sp].d(T)[sp].d(A)[sp].d(G)[sp].[moe](T)[sp].[moe](T)p.[moe](A)[sp].[moe](T)}$$$$ (last 3' nucleoside missing) | 2 score 0-7 |
| RNA1{[moe](T)[sp].[moe](T)p.[moe](G)[sp].[moe](G)[sp].[moe]([m5C])[sp].d(T)[sp].d(G)[sp].d(G)[sp].d(A)[sp].d(A)[sp].d(A)[sp].d(T)[sp].d(G)[sp].d(A)[sp].d(G)[sp].[moe](T)[sp].[moe](G)p.[moe]([m5C])[sp].[moe](A)}$$$$ (last 3' nucleoside missing) | 6 score 0-7 |
| RNA1{[moe](A)[sp].[moe](A)p.[moe]([m5C])[sp].[moe](G)[sp].[moe]([m5C])[sp].d(A)[sp].d([m5C])[sp].d(T)[sp].d(T)[sp].d(A)[sp].d(A)[sp].d([m5C])[sp].d(A)[sp].d(A)[sp].d(T)[sp].[moe](A)[sp].[moe](T)p.[moe]([m5C])[sp].[moe](A)}$$$$ (last 3' nucleoside missing) | 0 score 0-7 |
| RNA1{[moe](A)[sp].[moe](G)p.[moe](G)p.[moe](A)p.[moe](G)[sp].d(A)[sp].d(A)[sp].d(T)[sp].d(G)[sp].d(T)[sp].d(A)[sp].d(T)[sp].d(A)[sp].d(T)[sp].d(G)[sp].[moe]([m5C])p.[moe](T)p.[moe](T)[sp].[moe]([m5C])}$$$$ (last 3' nucleoside missing) | 6 score 0-7 |
| RNA1{[moe](G)[sp].[moe](T)p.[moe](T)[sp].[moe](T)[sp].[moe]([m5C])[sp].d(A)[sp].d(T)[sp].d(T)[sp].d([m5C])[sp].d(G)[sp].d(G)[sp].d(T)[sp].d(T)[sp].d(A)[sp].d(T)[sp].[moe](A)[sp].[moe](A)p.[moe](G)[sp].[moe](G)}$$$$ (last 3' nucleoside missing) | 7 score 0-7 |
